Where a SMILES comes first, the peptide text is derived from it.

Experiment [1] can be described thus: Remineralizing effects on enamel, chemical pH cycling model (SEM-EDS, Micro-CT, XRD). Also on record: species or system human. As to conditions: 160 μM twice daily, pH cycling 8 days, n = 8. The method, then: Ten enamel slices were cut from extracted sound human molars. Each slice was separated into four blocks. A total of 40 enamel blocks were prepared. Then the surface of the enamel block was half-covered by an acid-resistant varnish. The exposed half was the experimental surface, and the varnished half was the internal control. Before use, all the enamel blocks were sterilized via autoclave (Niu et al. 2021d; Yu et al. 2018).
The pH-cycling procedure (16 h-demineralization at pH 4.5 and 8 h-remineralization at pH 7.0) was performed to enamel blocks for 8 days. The formula for demineralizing/remineralizing solution was employed from a previous study (Yu et al. 2018). The enamel blocks from the same enamel slice were treated twice daily with 160 μM GAPI (GAPI Group), 160 μM gallic acid (GA Group), 160 μM polyphemusin-I (PI Group), and sterile deionized water (Water Group). All enamel blocks after pH cycling were involved in sequent assessments.
The structure of the enamel surface was examined using SEM (n=8 per group) (Niu et al. 2021d). The elemental analysis of enamel surface was conducted using affiliated energy-dispersive X-ray spectroscopy (EDS). The calcium to phosphorus molar ratio was calculated (Niu et al. 2022). The mineral loss and lesion depth on the enamel blocks were assessed using microcomputed tomography (Micro-CT) (1076, SkyScan, Antwerp, Belgium) (n=8 per group) (Niu et al. 2022). The diffraction patterns of the enamel blocks were evaluated using X-ray diffraction analysis (XRD) (Rigaku SmartLab 9 kW, […]) (n=2 per group) (Yu et al. 2018).

Experiment [2] in a line: Effect on hard tissue, biofilm remineralization cycling model (micro-CT, FTIR). The settings on record: carious dentine, 160 μM GAPI. The text has this:
Dentine slices, 2 mm thick, were cut from sound extracted third molars. Ultra-fine 4000-grit sandpaper was used to polish these slices. Slices with defects were eliminated based on a stereomicroscope observation. A total of forty dentine slices were selected. Each slice was separated into two blocks and assigned to two groups. Nail varnish was used to coat half of the blocks as an internal control. S. mutans American Type Culture Collection 35668 was utilized in the present study. All the dentine blocks were placed into S. mutans culture (10^8 cells/mL) in a brain-heart infusion (BHI) broth containing 5% glucose to generate artificial caries. After a 3-day anaerobic culture at 37° C., the depth of the caries lesion surface was around 96 μm, which was observed using micro-computed tomography (micro-CT).
Two blocks from the same slice were assigned to the GAPI group (160 μM GAPI) and control group (deionized water) separately. All the blocks underwent a biochemical model involving chemical remineralization and an S. mutans biofilm challenge for seven days. The remineralization solution (pH 7.0) consisted of 1.5 mm calcium chloride, 150 mm potassium chloride, 0.9 mm potassium dihydrogen phosphate, and 20 mm 4-(2-hydroxyethyl)-1-piperazineethanesulfonic acid. The cycling process included 8 h of immersion in the remineralization solution and 16 h of immersion in an S. mutans biofilm medium.
Micro-CT (SkyScan 1272, Antwerp, Belgium) was employed to evaluate the lesion depths and mineral losses (n=8 for each group). The X-ray source parameters were set at an 80 kV voltage and 100 μA current with an image pixel size of 10 μm. Moreover, two standard mineral cylindrical phantoms (Bruker, Kontich, Belgium) with mineral density values (MDVs, gHApcm^−3) of 0.25 gHApcm^−3 and 0.75 gHApcm^−3 were scanned to calibrate the blocks' greyscales. The NRecon reconstruction software (Version 1.7.4.6, SkyScan, Antwerp, Belgium) was utilized to reconstruct the scanning images. The CTAn data analysis software (CTAn version 1.20.3.0, Skyscan NV, Kontich, Belgium) was employed to analyze the cross-sectional images. The lesion depths were measured, and the images' greyscale values were calibrated. Subsequently, the demineralized and control areas were calculated into the MDV for each block. The mineral loss was determined as the difference between the MDV of the control and the MDV of the demineralized area (Niu et al., 2022).
FTIR (Spectrum Two, PerkinElmer, Waltham, MA, USA) was employed to examine the changes in the dentin's chemical structures (n=8 for each group). […] The ratio of the HPO4^2− to amide I absorbance area represented the degree of demineralization in the dentin.

[3] abbreviates: 7 days cycling, micro-CT, n = 8.

Regarding `CC(C)[C@@H]1NC(=O)[C@H](CCCN=C(N)N)NC(=O)[C@H](Cc2ccccc2)NC(=O)[C@@H](NC(=O)[C@H](Cc2c[nH]c3ccccc23)NC(=O)[C@H](CCCN=C(N)N)NC(=O)[C@H](CCCN=C(N)N)NC(=O)c2cc(O)c(O)c(O)c2)CSSC[C@@H](C(=O)N[C@@H](CCCN=C(N)N)C(=O)O)NC(=O)[C@H](CCCCN)NC(=O)[C@H](CCCN=C(N)N)NC(=O)[C@H](Cc2ccc(O)cc2)NC(=O)[C@@H]2CSSC[C@H](NC1=O)C(=O)N[C@@H](Cc1ccc(O)cc1)C(=O)N[C@@H](CCCN=C(N)N)C(=O)NCC(=O)N[C@@H](Cc1ccccc1)C(=O)N2` [GAPI, Gallic-Acid-Polyphemusin-I] (HELM PEPTIDE1{[O=C(c1cc(O)c(O)c(O)c1)[*:2]].R.R.W.C.F.R.V.C.Y.R.G.F.C.Y.R.K.C.R}$PEPTIDE1,PEPTIDE1,5:R3-18:R3|PEPTIDE1,PEPTIDE1,9:R3-14:R3$$$V2.0), the “Calcium to phosphate molar ratio” value in experiment [1] (EDS) came to 1.81 ± 0.05. In experiment [1] (Micro-CT), the Lesion depth was found to be 64 ± 7 μm and the Mineral loss was 0.89 ± 0.20 gHApcm^−3. In experiment [2], this compound came in with a lesion depths of 151±18 μm. Further, the “Hydrogen phosphate-to-amide I ratio” value in experiment [2] (7 days cycling, FTIR, n = 8) was 2.92±0.82. In experiment [2] (setting [3]), this compound returned a Lesion depth of 151 ± 18 μm and a Mineral loss of 0.91±0.07 gHAcm^−3.

Values taken from patent US20250090441A1, “ANTI-CARIES PEPTIDES WITH ANTIMICROBIAL AND REMINERALIZING PROPERTIES AND METHODS THEREOF” (THE UNIVERSITY OF HONG KONG, priority 2023, published 2025).
